Data taken from patent US6407103B2, “Indeno [1,2-c] pyrazol-4-ones and their uses” (Bristol-Myers Squibb Pharma Company, priority 1998, dated 2002).
Structures can show the parent of a compound that is named as a salt.

| Compound | melting point |
| --- | --- |
| O=C(Nc1cccc2c1C(=O)c1c-2n[nH]c1C1CCN(C(=O)Oc2ccccc2)CC1)NN1CCOCC1 (as salt: TFA) | 250 °C |
| O=C(Nc1cccc2c1C(=O)c1c-2n[nH]c1-c1ccc(C(=O)NC2CN3CCC2CC3)s1)NN1CCOCC1 (stereo not shown) (as salt: TFA) | 245 °C |
| O=C(Nc1cccc2c1C(=O)c1c-2n[nH]c1[C@H]1CC[C@H](C(=O)O)CC1)NN1CCOCC1 (as salt: TFA) [Example CCC, 3-(trans-4-carboxylcyclohexyl)-5-(morpholinocarbamoylamino)indeno[1,2-c]pyrazol-4-one] | 264 °C |
| COC(=O)[C@H]1CC[C@H](c2[nH]nc3c2C(=O)c2c(NC(=O)NN4CCOCC4)cccc2-3)CC1 (as salt: TFA) [Example CCCI, 3-(trans-4-(methoxycarbonyl)cyclohexyl)-5-(morpholinocarbamoylamino)indeno[1,2-c]pyrazol-4-one] | 259 °C |
| CN(C)C1CCN(C(=O)[C@H]2CC[C@H](c3[nH]nc4c3C(=O)c3c(NC(=O)NN5CCOCC5)cccc3-4)CC2)C1 (stereo partly drawn) (as salt: TFA) [Example CCCII, 3-(trans-4-(3-(dimethylamino)pyrrolidinocarbonyl)cyclohexyl)-5-(morpholinocarbamoylamino)indeno[1,2-c]pyrazol-4-one] | 191 °C |
| O=C(Nc1cccc2c1C(=O)c1c-2n[nH]c1[C@H]1CC[C@H](C(=O)N2CCNCC2)CC1)NN1CCOCC1 (as salt: TFA) [Example CCCIII, 3-(trans-4-(piperazinocarbonyl)cyclohexyl)-5-(morpholinocarbamoylamino)indeno[1,2-c]pyrazol-4-one] | 248 °C |
| CN1CCN(C(=O)[C@H]2CC[C@H](c3[nH]nc4c3C(=O)c3c(NC(=O)NN5CCOCC5)cccc3-4)CC2)CC1 (as salt: TFA) [Example CCCIV, 3-(trans-4-(4-methylpiperazinocarbonyl)cyclohexyl)-5-(morpholinocarbamoylamino)indeno[1,2-c]pyrazol-4-one] | 228 °C |
| COC[C@H]1CCCN1NC(=O)Nc1cccc2c1C(=O)c1c-2n[nH]c1-c1ccc(C(=O)O)s1 (as salt: TFA) [Example CCII, 3-(5-carboxyl-2-thienyl)-5-(2(R)-(methoxymethyl)pyrrolidinocarbamoylamino)indeno[1,2-c]pyrazol-4-one] | 258 °C |
| COC[C@H]1CCCN1NC(=O)Nc1cccc2c1C(=O)c1c-2n[nH]c1-c1ccc(C(=O)N2CCN(C)CC2)s1 (as salt: TFA) [Example CCIII, 3-(5-(4-methylpiperazinocarbonyl)-2-thienyl)-5-(2(R)-(methoxymethyl)pyrrolidinocarbamoylamino)indeno[1,2-c]pyrazol-4-one] | 181 °C |
| COC[C@H]1CCCN1NC(=O)Nc1cccc2c1C(=O)c1c-2n[nH]c1-c1ccc(C(=O)N2CCNCC2)s1 (as salt: TFA) [Example CCIV, 3-(5-piperazinocarbonyl-2-thienyl)-5-(2(R)-(methoxymethyl)pyrrolidinocarbamoylamino)indeno[1,2-c]pyrazol-4-one] | > 300 °C |
| O=C(Nc1cccc2c1C(=O)c1c-2n[nH]c1-c1ccc(N2CCC(N3CCCCC3)CC2)cc1)NN1CCOCC1 (as salt: TFA) [Example CCL, 3-(4-(4-piperidinopiperidino)phenyl)-5-(morpholinocarbamoylamino)indeno[1,2-c]pyrazol-4-one] | 233 °C |
| O=C(Nc1cccc2c1C(=O)c1c-2n[nH]c1-c1ccc(N2CCC(N3CCCC3)CC2)cc1)NN1CCOCC1 (as salt: TFA) [Example CCLI, 3-(4-(4-pyrrolidinopiperidino)phenyl)-5-(morpholinocarbamoylamino)indeno[1,2-c]pyrazol-4-one] | 247 °C |
| CCN(CC)C1CCN(c2ccc(-c3[nH]nc4c3C(=O)c3c(NC(=O)NN5CCOCC5)cccc3-4)cc2)CC1 (as salt: TFA) [Example CCLII, 3-(4-(4-(N,N-diethylamino)piperidino)phenyl)-5-(morpholinocarbamoylamino)indeno[1,2-c]pyrazol-4-one] | 251 °C |
